Experiments:
[1] = compound: O=[As]([O-])(O)O.[K+] [potassium arsenate]; test: thermal stability z-score vs DMSO; higher = more thermally stabilized by treatment; conditions: HeLa; arsenate concentration 1 mM
Experimental: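 Cellular thermal proteome profiling in HeLa cells treated with 1 mM arsenate for 1 h (DMSO pretreatment), heated to ten temperatures (37-66.3 °C). Soluble protein was quantified by TMT mass spectrometry relative to DMSO controls; the thermal stability score was transformed to a z-score; mean of n = 3 experiments.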

[2] = compound: NC(=O)CCCCC1CCSS1 [lipoamide]; test: as above; conditions: HeLa, lipoamide concentration 100 µM
Experimental: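 Cellular thermal proteome profiling in HeLa cells. Cells were treated with 100 µM lipoamide for 1 h, with or without 1 mM arsenate for a further 1 h, then heated to ten temperatures (37-66.3 °C), and soluble protein was quantified by TMT mass spectrometry relative to 0.1% DMSO controls. The thermal stability score (sum of log2 fold changes minus the abundance score) was transformed to a z-score; mean of n = 3 experiments.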

[3] = arsenate co-treatment: 1 mM arsenate 1 h
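Also: each temperature applied for 3 min, abundance score taken as mean log2 fold change at the two lowest temperatures, z-score obtained by mean subtraction and division by SD.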

## TAF15 (UniProt Q92804)
[1]
  thermal stability z-score: 1.34
[2]; [3]
  thermal stability z-score: 2.08
[2]; arsenate co-treatment: none
  thermal stability z-score: 1.21

## PKN3 (UniProt Q6P5Z2)
Chain of UniProt Q6P5Z2 (Q6P5Z2 whole entry, looked up): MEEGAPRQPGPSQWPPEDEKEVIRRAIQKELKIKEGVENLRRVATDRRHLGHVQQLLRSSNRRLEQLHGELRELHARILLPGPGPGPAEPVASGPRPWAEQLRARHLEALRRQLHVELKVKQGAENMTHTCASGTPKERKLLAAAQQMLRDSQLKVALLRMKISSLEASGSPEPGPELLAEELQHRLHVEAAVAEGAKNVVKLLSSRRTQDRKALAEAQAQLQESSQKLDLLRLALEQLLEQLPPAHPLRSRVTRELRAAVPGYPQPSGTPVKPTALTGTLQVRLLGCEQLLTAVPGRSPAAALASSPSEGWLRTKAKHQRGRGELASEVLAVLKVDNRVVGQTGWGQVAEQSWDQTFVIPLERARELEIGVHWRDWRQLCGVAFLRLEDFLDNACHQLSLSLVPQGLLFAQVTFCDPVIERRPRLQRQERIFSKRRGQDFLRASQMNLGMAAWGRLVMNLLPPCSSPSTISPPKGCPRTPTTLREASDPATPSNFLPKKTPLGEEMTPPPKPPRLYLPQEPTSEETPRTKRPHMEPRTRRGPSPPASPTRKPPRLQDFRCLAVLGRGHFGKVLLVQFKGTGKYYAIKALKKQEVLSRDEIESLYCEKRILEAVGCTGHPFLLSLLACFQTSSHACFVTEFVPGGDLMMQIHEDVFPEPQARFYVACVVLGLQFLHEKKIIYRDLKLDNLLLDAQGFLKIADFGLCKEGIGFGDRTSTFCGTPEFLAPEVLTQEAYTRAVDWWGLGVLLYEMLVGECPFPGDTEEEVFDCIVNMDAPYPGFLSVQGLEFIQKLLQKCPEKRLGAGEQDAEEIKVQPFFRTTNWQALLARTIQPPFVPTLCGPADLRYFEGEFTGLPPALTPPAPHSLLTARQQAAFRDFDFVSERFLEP
[1]
  thermal stability z-score: 0.231
[2]; [3]
  thermal stability z-score: -0.237
[2]; arsenate co-treatment: none
  thermal stability z-score: 0.334

## RPS26 (UniProt P62854)
[1]
  thermal stability z-score: -0.743
[2]; [3]
  thermal stability z-score: 0.0208
[2]; arsenate co-treatment: none
  thermal stability z-score: 0.263

## ANKMY2 (UniProt Q8IV38)
[1]
  thermal stability z-score: 0.0818
[2]; [3]
  thermal stability z-score: 0.0659
[2]; arsenate co-treatment: none
  thermal stability z-score: 0.00957

## MACROD1 (UniProt Q9BQ69)
Chain of UniProt Q9BQ69 (Q9BQ69 whole entry): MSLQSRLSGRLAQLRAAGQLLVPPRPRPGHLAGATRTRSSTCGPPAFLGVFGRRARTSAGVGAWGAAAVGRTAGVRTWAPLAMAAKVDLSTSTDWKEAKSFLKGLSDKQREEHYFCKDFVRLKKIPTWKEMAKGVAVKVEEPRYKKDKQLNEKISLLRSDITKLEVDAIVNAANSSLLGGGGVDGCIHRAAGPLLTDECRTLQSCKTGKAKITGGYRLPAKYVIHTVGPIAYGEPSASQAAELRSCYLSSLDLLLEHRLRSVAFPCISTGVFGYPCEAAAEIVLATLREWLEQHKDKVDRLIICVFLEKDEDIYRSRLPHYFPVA
[1]
  thermal stability z-score: 1.33
[2]; [3]
  thermal stability z-score: 1.61
[2]; arsenate co-treatment: none
  thermal stability z-score: 0.262

## OPHN1 (UniProt O60890)
[1]
  thermal stability z-score: 0.0261
[2]; [3]
  thermal stability z-score: -0.0389
[2]; arsenate co-treatment: none
  thermal stability z-score: 0.0614

## OCRL (UniProt Q01968)
[1]
  thermal stability z-score: 0.24
[2]; [3]
  thermal stability z-score: 0.142
[2]; arsenate co-treatment: none
  thermal stability z-score: 0.13

## SMARCAD1 (UniProt Q9H4L7)
[1]
  thermal stability z-score: -0.159
[2]; [3]
  thermal stability z-score: -1.27
[2]; arsenate co-treatment: none
  thermal stability z-score: -0.234

## DHRS3 (UniProt O75911)
[1]
  thermal stability z-score: -0.762
[2]; [3]
  thermal stability z-score: -0.614
[2]; arsenate co-treatment: none
  thermal stability z-score: -0.616

## FAM172A (UniProt Q8WUF8)
[1]
  thermal stability z-score: 0.275
[2]; [3]
  thermal stability z-score: 0.954
[2]; arsenate co-treatment: none
  thermal stability z-score: 0.472

## AKT1 (UniProt P31749)
[1]
  thermal stability z-score: -1.01
[2]; [3]
  thermal stability z-score: -0.698
[2]; arsenate co-treatment: none
  thermal stability z-score: -0.638

## GSDMD (UniProt P57764)
[1]
  thermal stability z-score: -0.198
[2]; [3]
  thermal stability z-score: 0.143
[2]; arsenate co-treatment: none
  thermal stability z-score: 0.362

## HAUS4 (UniProt Q9H6D7)
[1]
  thermal stability z-score: 0.0479
[2]; [3]
  thermal stability z-score: -0.0376
[2]; arsenate co-treatment: none
  thermal stability z-score: 0.0952

## GGA2 (UniProt Q9UJY4)
[1]
  thermal stability z-score: -0.335
[2]; [3]
  thermal stability z-score: -0.076
[2]; arsenate co-treatment: none
  thermal stability z-score: -0.0378

## DCTN3 (UniProt O75935)
Chain of UniProt O75935 (O75935 whole entry): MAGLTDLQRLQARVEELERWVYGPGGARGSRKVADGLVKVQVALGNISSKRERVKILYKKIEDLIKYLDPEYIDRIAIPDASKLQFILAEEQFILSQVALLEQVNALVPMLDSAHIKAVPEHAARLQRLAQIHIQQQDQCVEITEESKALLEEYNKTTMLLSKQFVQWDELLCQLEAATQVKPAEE
[1]
  thermal stability z-score: 0.72
[2]; [3]
  thermal stability z-score: 0.0144
[2]; arsenate co-treatment: none
  thermal stability z-score: 0.489

## TRAF7 (UniProt Q6Q0C0)
Chain of UniProt Q6Q0C0 (Q6Q0C0 whole entry): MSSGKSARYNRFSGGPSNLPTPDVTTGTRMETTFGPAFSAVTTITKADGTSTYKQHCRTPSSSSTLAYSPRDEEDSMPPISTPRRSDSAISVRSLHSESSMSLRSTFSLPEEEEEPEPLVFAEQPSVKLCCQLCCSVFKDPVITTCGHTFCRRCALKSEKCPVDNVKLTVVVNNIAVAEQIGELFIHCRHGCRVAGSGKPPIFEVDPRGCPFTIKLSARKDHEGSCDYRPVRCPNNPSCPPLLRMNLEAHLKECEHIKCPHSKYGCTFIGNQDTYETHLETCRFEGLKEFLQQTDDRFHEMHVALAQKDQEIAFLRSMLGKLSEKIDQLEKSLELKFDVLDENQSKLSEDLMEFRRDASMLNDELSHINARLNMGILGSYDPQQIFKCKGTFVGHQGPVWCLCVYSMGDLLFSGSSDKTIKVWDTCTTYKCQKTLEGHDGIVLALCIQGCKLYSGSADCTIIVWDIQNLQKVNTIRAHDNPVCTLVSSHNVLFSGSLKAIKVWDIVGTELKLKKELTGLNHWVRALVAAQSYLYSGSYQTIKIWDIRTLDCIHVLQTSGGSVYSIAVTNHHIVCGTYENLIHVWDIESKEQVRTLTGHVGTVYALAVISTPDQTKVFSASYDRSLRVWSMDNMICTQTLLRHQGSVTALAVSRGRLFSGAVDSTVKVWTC
[1]
  thermal stability z-score: -1.01
[2]; [3]
  thermal stability z-score: 0.0114
[2]; arsenate co-treatment: none
  thermal stability z-score: -0.686

## KIF3B (UniProt O15066)
Chain of UniProt O15066 (O15066 whole entry): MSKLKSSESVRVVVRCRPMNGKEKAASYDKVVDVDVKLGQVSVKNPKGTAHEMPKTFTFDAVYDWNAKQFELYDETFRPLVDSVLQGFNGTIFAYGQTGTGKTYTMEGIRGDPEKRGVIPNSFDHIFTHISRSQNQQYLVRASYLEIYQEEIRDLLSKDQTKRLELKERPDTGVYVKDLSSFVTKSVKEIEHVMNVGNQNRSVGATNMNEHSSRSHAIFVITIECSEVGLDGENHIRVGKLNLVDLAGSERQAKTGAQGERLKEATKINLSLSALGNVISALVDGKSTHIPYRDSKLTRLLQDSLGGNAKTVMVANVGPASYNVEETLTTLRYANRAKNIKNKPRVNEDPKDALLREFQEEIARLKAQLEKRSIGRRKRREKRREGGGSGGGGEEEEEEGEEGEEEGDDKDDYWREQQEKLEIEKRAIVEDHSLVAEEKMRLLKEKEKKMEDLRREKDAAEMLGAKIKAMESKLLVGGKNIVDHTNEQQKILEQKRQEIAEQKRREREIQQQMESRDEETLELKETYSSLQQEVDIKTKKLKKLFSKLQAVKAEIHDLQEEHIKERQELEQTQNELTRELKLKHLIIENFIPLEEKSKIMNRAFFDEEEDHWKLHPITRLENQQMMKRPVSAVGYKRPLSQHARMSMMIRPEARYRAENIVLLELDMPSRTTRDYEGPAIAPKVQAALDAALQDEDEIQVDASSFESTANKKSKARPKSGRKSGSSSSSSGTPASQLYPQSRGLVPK
[1]
  thermal stability z-score: -0.47
[2]; [3]
  thermal stability z-score: 0.285
[2]; arsenate co-treatment: none
  thermal stability z-score: -0.318

## TRIM3 (UniProt O75382)
[1]
  thermal stability z-score: -0.044
[2]; [3]
  thermal stability z-score: 0.012
[2]; arsenate co-treatment: none
  thermal stability z-score: 0.061

## HIP1R (UniProt O75146)
[1]
  thermal stability z-score: -0.232
[2]; [3]
  thermal stability z-score: 0.15
[2]; arsenate co-treatment: none
  thermal stability z-score: 0.28

## TBCE (UniProt Q15813)
[1]
  thermal stability z-score: -0.0811
[2]; [3]
  thermal stability z-score: -0.969
[2]; arsenate co-treatment: none
  thermal stability z-score: -0.354

## SYMPK (UniProt Q92797)
[1]
  thermal stability z-score: -0.75
[2]; [3]
  thermal stability z-score: 0.324
[2]; arsenate co-treatment: none
  thermal stability z-score: 0.338

## DYNC1I2 (UniProt Q13409)
[1]
  thermal stability z-score: -0.19
[2]; [3]
  thermal stability z-score: 0.0629
[2]; arsenate co-treatment: none
  thermal stability z-score: 0.266

## EIF2B4 (UniProt Q9UI10)
[1]
  thermal stability z-score: 0.533
[2]; [3]
  thermal stability z-score: -0.154
[2]; arsenate co-treatment: none
  thermal stability z-score: 0.0556

## UQCRH (UniProt P07919)
[1]
  thermal stability z-score: 0.58
[2]; [3]
  thermal stability z-score: 1.35
[2]; arsenate co-treatment: none
  thermal stability z-score: 1.45

## PTPRS (UniProt Q13332)
[1]
  thermal stability z-score: -0.0489
[2]; [3]
  thermal stability z-score: -0.214
[2]; arsenate co-treatment: none
  thermal stability z-score: -0.198

## IKBIP (UniProt Q70UQ0)
[1]
  thermal stability z-score: -0.0459
[2]; [3]
  thermal stability z-score: -3.01
[2]; arsenate co-treatment: none
  thermal stability z-score: -2.3

## TPM1 (UniProt P09493)
[1]
  thermal stability z-score: -0.151
[2]; [3]
  thermal stability z-score: 0.347
[2]; arsenate co-treatment: none
  thermal stability z-score: 0.422

## ME1 (UniProt P48163)
[1]
  thermal stability z-score: -0.207
[2]; [3]
  thermal stability z-score: 0.408
[2]; arsenate co-treatment: none
  thermal stability z-score: 0.575

## FPGT (UniProt O14772)
[1]
  thermal stability z-score: 0.0182
[2]; [3]
  thermal stability z-score: -0.111
[2]; arsenate co-treatment: none
  thermal stability z-score: 0.182

## ELP5 (UniProt Q8TE02)
[1]
  thermal stability z-score: 0.489
[2]; [3]
  thermal stability z-score: -0.313
[2]; arsenate co-treatment: none
  thermal stability z-score: -0.364

## ARPC1A (UniProt Q92747)
[1]
  thermal stability z-score: -0.466
[2]; [3]
  thermal stability z-score: -0.106
[2]; arsenate co-treatment: none
  thermal stability z-score: 0.0846

## NDUFAF7 (UniProt Q7L592)
[1]
  thermal stability z-score: 0.288
[2]; [3]
  thermal stability z-score: -0.486
[2]; arsenate co-treatment: none
  thermal stability z-score: -0.171

## UBE2G1 (UniProt P62253)
Chain of UniProt P62253 (P62253 whole entry): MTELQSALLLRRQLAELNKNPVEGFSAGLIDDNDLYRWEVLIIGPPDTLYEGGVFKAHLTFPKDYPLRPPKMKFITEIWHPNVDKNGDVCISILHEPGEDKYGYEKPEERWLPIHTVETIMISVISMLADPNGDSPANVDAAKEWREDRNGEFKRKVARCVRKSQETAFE
[1]
  thermal stability z-score: 0.0592
[2]; [3]
  thermal stability z-score: 0.288
[2]; arsenate co-treatment: none
  thermal stability z-score: 0.286

## MYO1C (UniProt O00159)
[1]
  thermal stability z-score: -1.94
[2]; [3]
  thermal stability z-score: 1.12
[2]; arsenate co-treatment: none
  thermal stability z-score: 0.329

## SLC25A15 (UniProt Q9Y619)
[1]
  thermal stability z-score: 0.22
[2]; [3]
  thermal stability z-score: 0.309
[2]; arsenate co-treatment: none
  thermal stability z-score: 0.0332

## HMOX1 (UniProt P09601)
[1]
  thermal stability z-score: -0.107
[2]; [3]
  thermal stability z-score: -0.0402
[2]; arsenate co-treatment: none
  thermal stability z-score: -0.011

## EIF2S3 (UniProt P41091)
Chain of UniProt P41091 (P41091 whole entry): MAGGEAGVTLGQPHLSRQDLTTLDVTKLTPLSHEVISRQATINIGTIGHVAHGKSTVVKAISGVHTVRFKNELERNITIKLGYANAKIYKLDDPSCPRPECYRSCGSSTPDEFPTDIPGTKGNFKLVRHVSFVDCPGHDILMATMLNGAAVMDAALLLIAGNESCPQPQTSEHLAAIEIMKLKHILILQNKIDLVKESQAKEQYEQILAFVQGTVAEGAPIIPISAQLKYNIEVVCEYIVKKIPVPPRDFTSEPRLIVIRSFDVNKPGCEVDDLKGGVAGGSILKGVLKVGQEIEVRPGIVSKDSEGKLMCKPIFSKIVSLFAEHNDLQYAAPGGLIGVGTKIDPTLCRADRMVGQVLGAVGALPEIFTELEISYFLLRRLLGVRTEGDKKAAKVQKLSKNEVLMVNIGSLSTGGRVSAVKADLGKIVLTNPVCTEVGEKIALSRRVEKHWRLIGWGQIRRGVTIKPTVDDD
[1]
  thermal stability z-score: 1.34
[2]; [3]
  thermal stability z-score: 0.159
[2]; arsenate co-treatment: none
  thermal stability z-score: -0.567

## PMVK (UniProt Q15126)
[1]
  thermal stability z-score: 0.0469
[2]; [3]
  thermal stability z-score: -0.641
[2]; arsenate co-treatment: none
  thermal stability z-score: 0.0911

## WARS (UniProt P23381)
[1]
  thermal stability z-score: 0.737
[2]; [3]
  thermal stability z-score: 0.561
[2]; arsenate co-treatment: none
  thermal stability z-score: 0.612

## BRD2 (UniProt P25440)
[1]
  thermal stability z-score: -0.153
[2]; [3]
  thermal stability z-score: -0.0745
[2]; arsenate co-treatment: none
  thermal stability z-score: 0.075

## PREP (UniProt P48147)
[1]
  thermal stability z-score: 0.347
[2]; [3]
  thermal stability z-score: -0.299
[2]; arsenate co-treatment: none
  thermal stability z-score: -0.268

## PARG (UniProt Q86W56)
[1]
  thermal stability z-score: 0.0362
[2]; [3]
  thermal stability z-score: -0.123
[2]; arsenate co-treatment: none
  thermal stability z-score: 0.257

## PGRMC2 (UniProt O15173)
[1]
  thermal stability z-score: 0.479
[2]; [3]
  thermal stability z-score: 0.682
[2]; arsenate co-treatment: none
  thermal stability z-score: 0.466

## UAP1 (UniProt Q16222)
[1]
  thermal stability z-score: -0.553
[2]; [3]
  thermal stability z-score: 0.373
[2]; arsenate co-treatment: none
  thermal stability z-score: 0.0722

## NDUFB9 (UniProt Q9Y6M9)
Chain of UniProt Q9Y6M9 (Q9Y6M9 whole entry): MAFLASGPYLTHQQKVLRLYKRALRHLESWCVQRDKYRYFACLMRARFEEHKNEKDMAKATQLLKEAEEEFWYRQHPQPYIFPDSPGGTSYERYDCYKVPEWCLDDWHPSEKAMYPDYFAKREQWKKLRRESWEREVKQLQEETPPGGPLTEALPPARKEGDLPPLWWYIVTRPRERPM
[1]
  thermal stability z-score: -0.937
[2]; [3]
  thermal stability z-score: 0.158
[2]; arsenate co-treatment: none
  thermal stability z-score: -0.175

## NFKBIB (UniProt Q15653)
[1]
  thermal stability z-score: 0.948
[2]; [3]
  thermal stability z-score: -0.344
[2]; arsenate co-treatment: none
  thermal stability z-score: -0.271

## ACOT9 (UniProt Q9Y305)
[1]
  thermal stability z-score: -0.344
[2]; [3]
  thermal stability z-score: 0.00609
[2]; arsenate co-treatment: none
  thermal stability z-score: 0.283

## TATDN1 (UniProt Q6P1N9)
Chain of UniProt Q6P1N9 (Q6P1N9 whole entry): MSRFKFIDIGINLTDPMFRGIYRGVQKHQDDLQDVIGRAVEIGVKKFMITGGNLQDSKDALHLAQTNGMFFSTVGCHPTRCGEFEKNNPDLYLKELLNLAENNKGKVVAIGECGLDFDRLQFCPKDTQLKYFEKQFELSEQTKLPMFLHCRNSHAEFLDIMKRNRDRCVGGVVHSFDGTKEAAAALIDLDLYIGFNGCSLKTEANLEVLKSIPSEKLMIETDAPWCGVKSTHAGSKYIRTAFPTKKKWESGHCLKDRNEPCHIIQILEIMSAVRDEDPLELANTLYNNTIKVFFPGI
[1]
  thermal stability z-score: 0.169
[2]; [3]
  thermal stability z-score: 0.263
[2]; arsenate co-treatment: none
  thermal stability z-score: 0.514

## BCAS2 (UniProt O75934)
[1]
  thermal stability z-score: 0.558
[2]; [3]
  thermal stability z-score: 0.913
[2]; arsenate co-treatment: none
  thermal stability z-score: 0.747

## CEP55 (UniProt Q53EZ4)
[1]
  thermal stability z-score: -0.0317
[2]; [3]
  thermal stability z-score: -0.129
[2]; arsenate co-treatment: none
  thermal stability z-score: -0.0226

## GTF3A (UniProt Q92664)
[1]
  thermal stability z-score: -1.35
[2]; [3]
  thermal stability z-score: -0.654
[2]; arsenate co-treatment: none
  thermal stability z-score: -0.754

## HLTF (UniProt Q14527)
Chain of UniProt Q14527 (Q14527 whole entry): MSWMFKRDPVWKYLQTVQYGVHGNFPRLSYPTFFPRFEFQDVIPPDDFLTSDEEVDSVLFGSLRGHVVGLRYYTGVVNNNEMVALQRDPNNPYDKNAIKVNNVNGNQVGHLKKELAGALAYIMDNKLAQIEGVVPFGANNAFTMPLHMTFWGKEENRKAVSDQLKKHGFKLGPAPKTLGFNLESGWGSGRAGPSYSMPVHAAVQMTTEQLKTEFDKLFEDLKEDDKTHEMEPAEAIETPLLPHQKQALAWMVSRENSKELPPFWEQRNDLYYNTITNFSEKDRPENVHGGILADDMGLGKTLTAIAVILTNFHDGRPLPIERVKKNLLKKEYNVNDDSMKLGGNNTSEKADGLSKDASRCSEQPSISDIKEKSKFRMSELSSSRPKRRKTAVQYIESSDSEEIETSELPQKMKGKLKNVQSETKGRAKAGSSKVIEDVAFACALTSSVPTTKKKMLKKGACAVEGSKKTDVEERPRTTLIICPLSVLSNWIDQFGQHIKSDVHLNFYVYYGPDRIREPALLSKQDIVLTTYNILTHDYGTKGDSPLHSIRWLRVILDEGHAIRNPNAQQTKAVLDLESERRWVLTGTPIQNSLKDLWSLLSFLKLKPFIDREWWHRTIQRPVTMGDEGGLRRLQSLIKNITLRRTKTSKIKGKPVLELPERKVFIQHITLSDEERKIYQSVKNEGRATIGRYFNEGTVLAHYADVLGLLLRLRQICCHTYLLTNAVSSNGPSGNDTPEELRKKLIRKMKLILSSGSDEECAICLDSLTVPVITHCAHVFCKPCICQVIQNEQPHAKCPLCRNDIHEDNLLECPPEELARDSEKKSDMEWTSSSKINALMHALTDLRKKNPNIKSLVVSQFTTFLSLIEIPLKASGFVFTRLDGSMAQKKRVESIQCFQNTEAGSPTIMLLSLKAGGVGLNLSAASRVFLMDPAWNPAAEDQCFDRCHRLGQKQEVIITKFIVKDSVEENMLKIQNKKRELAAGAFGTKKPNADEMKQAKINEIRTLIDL
[1]
  thermal stability z-score: -0.308
[2]; [3]
  thermal stability z-score: -0.245
[2]; arsenate co-treatment: none
  thermal stability z-score: -0.0608

## ZNF787 (UniProt Q6DD87)
[1]
  thermal stability z-score: 0.223
[2]; [3]
  thermal stability z-score: 0.853
[2]; arsenate co-treatment: none
  thermal stability z-score: 1.17

## ARHGAP4 (UniProt P98171)
[1]
  thermal stability z-score: 0.0513
[2]; [3]
  thermal stability z-score: -0.00218
[2]; arsenate co-treatment: none
  thermal stability z-score: 0.000585

## PER1 (UniProt O15534)
[1]
  thermal stability z-score: -0.023
[2]; [3]
  thermal stability z-score: 0.107
[2]; arsenate co-treatment: none
  thermal stability z-score: -0.119

From the supplement of paper PMC12463676, “Small-molecule dissolution of stress granules by redox modulation benefits ALS models” (Nature Chemical Biology, 2025)
